Measured values taken from paper PMC5397059, “Design, synthesis and structure-activity relationship study of wollamide B; a new potential anti TB agent” (PLoS ONE, 2017).
Values after ≈ are worked out from the molar mass of the structure shown. Values joined by “and” are separate entries in the source; they are usually repeats but may differ in a detail not shown here. Equal values may be shown once. Non-standard residues stand in square brackets, D forms with d. Residues, ends and D or L forms follow the SMILES beside them. dPhe(4-Cl) = N[C@H](Cc1ccc(Cl)cc1)C(=O)O; dOrn = NCCC[C@@H](N)C(=O)O

Legend:
[1] = Chemi-Luminescent Nitrogen Detection (CLND) kinetic solubility assay; format: physicochemical; settings: phosphate buffered saline, pH 7.4; kinetic aqueous solubility by CLND; read-out: Solubility
Method: GSK in-house kinetic solubility assay: 5 μL of 10mM DMSO stock solution diluted to 100 uL with pH7.4 phosphate buffered saline, equilibrated for 1 hour at room temperature, filtered through Millipore Multiscreen HTS-PCF filter plates (MSSL BPC).
The filtrate is quantified by suitably calibrated flow injection CLND. The standard error of the CLND solubility determination is ±30 μM, the upper limit of the solubility is 500 μM when working from 10 mM DMSO stock solution.

[2] = Chrom logD assay; format: physicochemical; settings: pH 7.4; read-out: Log D
Method: The Chromatographic Hydrophobicity Index (CHI) values were measured using a reversed phase HPLC column (50 x 2 mmx 3 μMGemini NX C18, Phenomenex, UK) with fast acetonitrile gradient at starting mobile phase of 100% pH = 7.4 buffer. CHI values are derived directly from the gradient retention times by using a calibration line obtained for standard compounds. The CHI value approximates to the volume % organic concentration when the compound elutes. CHI is linearly transformed into ChromlogD by the formula: ChromlogD=0.0857CHI−2.00
The average error of the assay is ±3 CHI unit or ±0.25 ChromlogD.

[3] = Artificial membrane permeability assay; format: in vitro ADME; settings: PAMPA, pH 7.4; passive artificial membrane permeability; read-out: Permeability
Method: A 8% L-a-phosphatidylcholine (EPC) in 1% cholesterol decane solution and a 1.8% EPC in cholesterol decane solution were prepared. The lipid solution was then aliquoted into 4 mL capped vials, sealed with parafilm and stored in-20°Cfreezer. The lipid solution was then transferred from 4 mL vial into 96-well half area plate (130μL/well) for daily assay usage. An additional 50 mM phosphate buffer with 0.5% encapsin, pH at 7.4 was prepared. The assay was run by the Biomek FX and Biomek software. The assay procedure is written under the Biomek software. For one batch assay, it can test two 96-well sample plates with at least one standard on each sample plate. The total assay time was about 4 hours. 3.5 μL of lipid solution were added to the filler plate, shaken for 12 seconds, and 250 μL of buffer were added to donor side and 100 μL to the receiver side. The assay plate was shaken for 45 min before adding the compounds. The test compounds (2.5 μL) were added to the donor side. The assay was run as replicates: Assay plates1 and 2 tested the sample plate 1; assay plates 3 and 4 tested the sample plate 2. The assay plates were then incubated and shaken for 3 hours at room temperature.
The assay samples were transferred to the HPLC analysis plates and 100 μL of receiver solution were aspirated and transferred to the receiver for analysis. Similarly, another 100 μL from the donor solution were transferred to the donor analysis plate.
Compound concentration was measured by HPLC at different time-points and permeability was established as nm/sec.

[4] = target: human serum albumin (Homo sapiens, UniProt P02768); assay: Human serum albumin (HSA) binding assay; format: in vitro ADME; settings: human serum albumin binding
Method: HSA binding assay was performed according to the method described by Valko K, et al. The basic principle of the measurements is the determination of gradient retention times of compounds on immobilized HSA column and converting these retention times to the appropriate property values using calibration. The peaks are detected and identified by UV. Calibration sets of compounds are measured before each run for which the HSA binding values are known. The retention times of the calibration set of compounds are plotted against these known values. The slope and the intercept of the obtained straight lines are used to calculate the HSA binding for the unknown compounds.

[5] = Plasma stability assay, mouse plasma; format: in vitro ADME; settings: CD1, mouse, plasma; 2 hours at 37°C, triplicates; read-out: Plasma stability (% remaining) Mouse
Method: (§1) Plasma stability of the compounds was assessed in CD1 mouse and human plasma. Plasma was spiked with 1 μL of a 10 mM of each test compound solution to produce a 1 uM incubation. Three separate 300 μl aliquots were then taken from each tube and incubated at 37°C for 2 h. At each time point (0, 15, 30, 60 and 120 min), 50 μL of plasma were collected from each sample. Samples were extracted by protein precipitation with 250 μL of 0.1% AcOH acetonitrile methanol 3–1 (v/v) containing 1uM internal standard and centrifuged for 10min at 2800rpm. Supernatants were collected prior the injection onto an LC-MS/MS system. Analyte/Internal standard peak area ratios were referenced to the zero time-point samples as 100% in order to determine the percentage of compound remaining for each time-point. Ln plots of the % remaining for each compound were used to determine the half-life for the plasma incubations.

[6] = Plasma stability assay, human plasma; format: in vitro ADME; settings: human, plasma; 2 hours at 37°C, triplicates; read-out: Plasma stability (% remaining) Human
Method: as §1

[7] = Intrinsic clearance (CLint) assay, mouse liver microsomes; format: in vitro ADME; settings: for % LBF Mouse: liver blood flow; for CLint Mouse: mouse liver microsomes; for half-life at 0.5 µM: mouse, pooled mouse liver microsomes, pH 7.4, read-out: Microsomal t1/2 Mouse; for CLpred Mouse: predicted metabolic clearance
Method: (§2) Pooled mouse and human liver microsomes are purchased from Xenotech. Microsomes (final protein concentration 0.5 mg/mL, MgCl2 (final concentration = 5 mM) and test compound (final substrate concentration = 0.5] M; final DMSO concentration = 0.5%) in 0.1 M phosphate buffer pH 7.4 are pre-incubated at 37°C prior to the addition of NADPH (final concentration = 1 mM) to initiate the reaction. The final incubation volume is 600 μL.
(§3) Control incubation is included for each compound tested where 0.1 M phosphate buffer pH 7.4 is added instead of NADPH (minus NADPH). One control compound is included with each species. All incubations are performed singularly for each test compound. Each compound is incubated for 45 minutes and samples (100 μL) of incubate are taken at 0, 5, 15, 30 and 45 min. The control (minus NADPH) is sampled at 30 min only. The reactions are stopped by the addition of sample to 200 μL Acetonitrile: Methanol 3:1 containing internal standard. The terminated samples are centrifuged at 2,500 rpm for 20 min at 4°C to precipitate the protein. Quantitative analysis: following protein precipitation, the samples were analyzed using specific LC-MS/MS conditions. Data analysis: from a plot of ln peak area ratio (compound peak area/internal standard peak area) against time, the gradient of the line was determined. Subsequently, half-life and intrinsic clearance were calculated using the equations below: Eliminationrateconstant(K)=(−gradient) Halflife(t1/2)(min)=0.693/K Cli(mL/min/gprotien)=V×0.693/t1/2 WhereV=Incubationvolume(mL/gmicrosomalprotien)

[8] = Intrinsic clearance (CLint) assay, human liver microsomes; format: in vitro ADME; settings: for half-life at 0.5 µM: human, pooled human liver microsomes, pH 7.4, human liver microsomes, read-out: Microsomal t1/2 Human; for % LBF Human: liver blood flow; for % LBF given as a fraction (metabolic stability class): predicted hepatic clearance, microsomal stability; for CLpred Human: predicted metabolic clearance
Method: as §2, §3

[9] = tested on: Mtb H37Rv; settings: duplicate; analogues

Chain of human serum albumin (P02768 25-609): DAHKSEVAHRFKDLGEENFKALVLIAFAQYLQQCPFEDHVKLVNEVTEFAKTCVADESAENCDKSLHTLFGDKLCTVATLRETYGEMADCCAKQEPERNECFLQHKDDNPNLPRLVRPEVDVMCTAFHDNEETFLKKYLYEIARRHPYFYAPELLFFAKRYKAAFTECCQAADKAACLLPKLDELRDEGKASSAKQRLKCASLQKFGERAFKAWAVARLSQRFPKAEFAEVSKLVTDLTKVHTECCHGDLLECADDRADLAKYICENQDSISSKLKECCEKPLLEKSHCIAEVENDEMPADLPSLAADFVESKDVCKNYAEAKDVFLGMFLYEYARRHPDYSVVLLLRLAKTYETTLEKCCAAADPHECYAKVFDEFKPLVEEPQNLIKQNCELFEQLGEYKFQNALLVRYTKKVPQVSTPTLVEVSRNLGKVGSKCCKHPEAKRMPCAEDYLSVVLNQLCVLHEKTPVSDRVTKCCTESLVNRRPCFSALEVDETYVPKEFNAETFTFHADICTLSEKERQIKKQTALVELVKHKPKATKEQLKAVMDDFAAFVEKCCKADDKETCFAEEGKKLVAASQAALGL

Compound | solubility kinetic at 1 h [1] [µg/mL] | chromatographic logD [2] | Papp at 3 h [3] [×10⁻⁶ cm/s] | % HSA [4] | remaining at 2 h, 1 uM [5] [%] | remaining at 2 h, 1 uM [6] [%] | % LBF Mouse [7] [%] | CLint Mouse [7] [mL/min/g tissue] | half-life at 0.5 µM [7] [h] | CLpred Mouse [7] [mL/min/kg] | CLint Human ([8]; human liver microsomes) [mL/min/g tissue] | half-life at 0.5 µM [8] [h] | % LBF Human [8] [%] | % LBF given as a fraction (metabolic stability class) [8] | CLpred Human [8] [mL/min/kg] | Microsomal t1/2 Human ([8]; human liver microsomes) [h] | MIC against Mtb H37Rv [9] [µM]
CC(C)C[C@@H]1NC(=O)[C@H](Cc2c[nH]c3ccccc23)NC(=O)[C@@H](CCCN)NC(=O)[C@@H](CCCN)NC(=O)[C@H](C(C)C)NC(=O)[C@@H](CC(C)C)NC1=O [Compound 9c] (cyclo(L[dL]V[dOrn][dOrn]W)) | 39 (≈ 52.7 µM) | 1.32 | 1 | 86.46% | 100 | 100 | 18.68 | 0.57 | 1.95 | 23.53 | 0.45 | 2.03 | 38.08 | < 1/3 | 6.85 |  | 
CC(C)C[C@@H]1NC(=O)[C@H](Cc2c[nH]c3ccccc23)NC(=O)[C@@H](CCCN)NC(=O)[C@H](CC(N)=O)NC(=O)[C@H](C(C)C)NC(=O)[C@@H](Cc2ccc(Cl)cc2)NC1=O [Compound 16c] (cyclo(L[dPhe(4-Cl)]VN[dOrn]W)) | ≥ 192 | 1.92 | < 0.3 | 92% and 92.54% | 98 | 99 | 19.21 | 0.59 | 1.89 | 24.21 | 2.43 | < 0.5 | 76.78 | > ¾ | 13.82 | 0.3773 | 
CC(C)C[C@@H]1NC(=O)[C@@H](CC(C)C)NC(=O)[C@@H](CCCN)NC(=O)[C@H](CC(N)=O)NC(=O)[C@H](C(C)C)NC(=O)[C@H](Cc2c[nH]c3ccccc23)NC1=O [Compound 21c] (cyclo(LWVN[dOrn][dL])) | ≥ 210 | 1.89 | < 0.3 | 79.64% | 98 | 97 | <16.83 | <0.50 | > 2.31 | <21.21 | <0.40 | > 2.31 | <35.25 |  | <6.35 |  | 20 (≈ 14.8 µg/mL)
CC(C)C[C@@H]1NC(=O)[C@H](Cc2c[nH]c3ccccc23)NC(=O)[C@@H](CCCN)NC(=O)[C@H](CC(N)=O)NC(=O)[C@H](C(C)C)NC(=O)[C@@H](C)NC1=O [Compound 6c] (cyclo(L[dA]VN[dOrn]W)) | ≥ 196 | 1.04 | < 1 | 42.21% | 102 | 95 | <16.27 | <0.48 | > 2.31 | <20.50 | 0.73 | 1.25 | 49.94 |  | 8.99 |  | >80
CC(C)C[C@@H]1NC(=O)[C@H](Cc2c[nH]c3ccccc23)NC(=O)[C@@H](CCCN)NC(=O)[C@H](CC(N)=O)NC(=O)[C@H](C)NC(=O)[C@@H](CC(C)C)NC1=O [Compound 5c] (cyclo(AN[dOrn]WL[dL])) | 129 (≈ 181 µM) | 1.32 | < 1 | 56.76% | 96 | 98 | <16.27 | <0.48 | > 2.31 | <20.50 | <0.40 | > 2.31 | <35.08 |  | 6.31 |  | >80
CC(C)C[C@@H]1NC(=O)[C@H](C)NC(=O)[C@@H](CCCN)NC(=O)[C@H](CC(N)=O)NC(=O)[C@H](C(C)C)NC(=O)[C@@H](CC(C)C)NC1=O [Compound 3c] (cyclo(AL[dL]VN[dOrn])) | 136 (≈ 218 µM) |  |  | 26% and 25.51% | 92 | 86 | <16.27 | <0.48 | > 2.31 | <20.50 | <0.40 | > 2.31 | <35.08 |  | 6.31 |  | >80
CC[C@H](C)[C@@H]1NC(=O)[C@@H](CC(C)C)NC(=O)[C@H](CC(C)C)NC(=O)[C@H](Cc2c[nH]c3ccccc23)NC(=O)[C@@H](CCCN)NC(=O)[C@H](CC(N)=O)NC1=O [Compound 7c] (cyclo(IN[dOrn]WL[dL])) | ≥ 177 | 1.83 | < 1 | 76.35% | 98 | 99 | <16.27 | <0.48 | > 2.31 | <20.50 | 1.70 | 0.54 | 69.81 |  | 12.57 |  | 
